The supplement of paper PMC9663587

Key:
[1] = compound: CCN1CCN(Cc2ccc(Nc3ncc(F)c(-c4cc(F)c5nc(C)n(C(C)C)c5c4)n3)nc2)CC1; test: increase in dead-cell fraction, 72 h; higher = more death;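 further: breast cancer cell lines in 384-well plates, stained with Hoechst plus LIVE/DEAD far red dye and imaged, cells above an LDR intensity threshold counted dead, Hoechst-negative corpses included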
Flavopiridol [2] = compound: T1, CN1CC[C@H](c2c(O)cc(O)c3c(=O)cc(-c4ccccc4Cl)oc23)[C@H](O)C1 [Flavopiridol]; test: as above
[3] = compound: CCN1CCN(Cc2ccc(Nc3ncc(F)c(-c4cc(F)c5nc(C)n(C(C)C)c5c4)n3)nc2)CC1; test: GR value, 72 h; higher = faster growth (1 = untreated, <0 = killing);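 further: breast cancer and non-malignant breast epithelial lines, nine half-log doses, viable cells counted by Hoechst and LIVE/DEAD dye imaging versus time-zero plates and DMSO controls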
LEE011/Ribociclib = compound: CN(C)C(=O)c1cc2cnc(Nc3ccc(N4CCNCC4)cn3)nc2n1C1CCCC1 [LEE011/Ribociclib]; test: as above
Flavopiridol [4] = compound: T1, Flavopiridol; test: as above
[5] = compound: CCc1cnn2c(NCc3ccc[n+]([O-])c3)cc(N3CCCC[C@H]3CCO)nc12; test: as above
THZ531 = compound: CN(C)C/C=C/C(=O)Nc1ccc(C(=O)N2CCC[C@@H](Nc3ncc(Cl)c(-c4c[nH]c5ccccc45)n3)C2)cc1 [THZ531]; test: as above
BSJ-03-123 = compound: CC(=O)c1c(C)c2cnc(Nc3ccc(N4CCN(CCOCCOCCOCCNC(=O)COc5cccc6c5C(=O)N(C5CCC(=O)NC5=O)C6=O)CC4)cn3)nc2n(C2CCCC2)c1=O [BSJ-03-123]; test: as above
THZ1 = compound: CN(C)C/C=C/C(=O)Nc1ccc(C(=O)Nc2cccc(Nc3ncc(Cl)c(-c4c[nH]c5ccccc45)n3)c2)cc1 [THZ1]; test: as above
[6] = compound: CC(=O)c1c(C)c2cnc(Nc3ccc(N4CCNCC4)cn3)nc2n(C2CCCC2)c1=O; test: as above
YKL-5-124 = compound: C=CC(=O)Nc1ccc(C(=O)Nc2[nH]nc3c2CN(C(=O)N[C@H](CN(C)C)c2ccccc2)C3(C)C)cc1 [YKL-5-124]; test: as above
Neratinib/HKI272 = compound: CCOc1cc2ncc(C#N)c(Nc3ccc(OCc4ccccn4)c(Cl)c3)c2cc1NC(=O)/C=C/CN(C)C [Neratinib/HKI272]; test: as above

For HCC1187, the “increase in dead-cell fraction” value ([1]; 0.001 µM) was 0.0028, the “increase in dead-cell fraction” value ([1]; 0.003162 µM) was 0.0037 and the “increase in dead-cell fraction” value ([1]; 0.01 µM) was 0.0062. The “increase in dead-cell fraction” value ([1]; 0.03162 µM) was -0.0026, the “increase in dead-cell fraction” value ([1]; 0.1 µM) was 0.0042 and the “increase in dead-cell fraction” value ([1]; 0.3162 µM) was 0.0069. The “increase in dead-cell fraction” value ([1]; 1 µM) was -0.0008, the “increase in dead-cell fraction” value ([1]; 3.162 µM) was 0.0149 and the “increase in dead-cell fraction” value ([1]; 10 µM) was 0.0352. For the same cell line, the “increase in dead-cell fraction” value (Flavopiridol [2]; 0.0001 µM) was -0.0206, the “increase in dead-cell fraction” value (Flavopiridol [2]; 0.0003162 µM) was 0.0043 and the “increase in dead-cell fraction” value (Flavopiridol [2]; 0.001 µM) was 0.0532. The “increase in dead-cell fraction” value (Flavopiridol [2]; 0.003162 µM) was -0.0091, the “increase in dead-cell fraction” value (Flavopiridol [2]; 0.01 µM) was 0.0053 and the “increase in dead-cell fraction” value (Flavopiridol [2]; 0.03162 µM) was -0.0105. The “increase in dead-cell fraction” value (Flavopiridol [2]; 0.1 µM) was 0.0075, the “increase in dead-cell fraction” value (Flavopiridol [2]; 0.3162 µM) was 0.15 and the “increase in dead-cell fraction” value (Flavopiridol [2]; 1 µM) was 0.612. For the same cell line, the GR value ([3]; 0.001 µM) was 0.974 GR, the GR value ([3]; 0.003162 µM) was 0.907 GR and the GR value ([3]; 0.01 µM) was 0.898 GR. The GR value ([3]; 0.03162 µM) was 0.971 GR, the GR value ([3]; 0.1 µM) was 1.01 GR and the GR value ([3]; 0.3162 µM) was 1 GR. For the same cell line, the GR value ([3]; 1 µM) was 0.849 GR, the GR value ([3]; 3.162 µM) was 0.69 GR and the GR value ([3]; 10 µM) was 0.297 GR. It also gave a GR value (LEE011/Ribociclib; 0.001 µM) of 1.01 GR, a GR value (LEE011/Ribociclib; 0.003162 µM) of 0.914 GR and a GR value (LEE011/Ribociclib; 0.01 µM) of 0.863 GR. For the same cell line, the GR value (LEE011/Ribociclib; 0.03162 µM) was 1.02 GR, the GR value (LEE011/Ribociclib; 0.1 µM) was 0.922 GR and the GR value (LEE011/Ribociclib; 0.3162 µM) was 0.984 GR. For the same cell line, the GR value (LEE011/Ribociclib; 1 µM) was 0.933 GR, the GR value (LEE011/Ribociclib; 3.162 µM) was 0.963 GR and the GR value (LEE011/Ribociclib; 10 µM) was 0.933 GR. The GR value (Flavopiridol [4]; 0.0001 µM) was 0.966 GR, the GR value (Flavopiridol [4]; 0.0003162 µM) was 0.963 GR and the GR value (Flavopiridol [4]; 0.001 µM) was 0.368 GR. The GR value (Flavopiridol [4]; 0.003162 µM) was 1 GR, the GR value (Flavopiridol [4]; 0.01 µM) was 0.995 GR and the GR value (Flavopiridol [4]; 0.03162 µM) was 0.961 GR. It also gave a GR value (Flavopiridol [4]; 0.1 µM) of 0.805 GR, a GR value (Flavopiridol [4]; 0.3162 µM) of -0.16 GR and a GR value (Flavopiridol [4]; 1 µM) of -0.885 GR. It also gave a GR value ([5]; 0.0001 µM) of 0.988 GR, a GR value ([5]; 0.0003162 µM) of 1 GR and a GR value ([5]; 0.001 µM) of 1.08 GR. The GR value ([5]; 0.003162 µM) was 0.985 GR, the GR value ([5]; 0.01 µM) was 0.471 GR and the GR value ([5]; 0.03162 µM) was -0.689 GR. It also gave a GR value ([5]; 0.1 µM) of -0.797 GR, a GR value ([5]; 0.3162 µM) of -0.791 GR and a GR value ([5]; 1 µM) of -0.761 GR. It also gave a GR value (THZ531; 0.0001 µM) of 0.932 GR, a GR value (THZ531; 0.0003162 µM) of 1.02 GR and a GR value (THZ531; 0.001 µM) of 0.99 GR. For the same cell line, the GR value (THZ531; 0.003162 µM) was 1.04 GR, the GR value (THZ531; 0.01 µM) was 0.976 GR and the GR value (THZ531; 0.03162 µM) was 0.879 GR. It also gave a GR value (THZ531; 0.1 µM) of -0.437 GR, a GR value (THZ531; 0.3162 µM) of -0.852 GR and a GR value (BSJ-03-123; 0.001 µM) of 0.987 GR. For the same cell line, the GR value (BSJ-03-123; 0.003162 µM) was 0.865 GR, the GR value (BSJ-03-123; 0.01 µM) was 0.969 GR and the GR value (BSJ-03-123; 0.03162 µM) was 0.935 GR. The GR value (BSJ-03-123; 0.1 µM) was 0.956 GR, the GR value (BSJ-03-123; 0.3162 µM) was 0.882 GR and the GR value (BSJ-03-123; 1 µM) was 0.743 GR. It also gave a GR value (BSJ-03-123; 3.162 µM) of 0.621 GR, a GR value (BSJ-03-123; 10 µM) of -0.43 GR and a GR value (THZ1; 0.0001 µM) of 0.932 GR. The GR value (THZ1; 0.0003162 µM) was 1.51 GR, the GR value (THZ1; 0.001 µM) was 0.963 GR and the GR value (THZ1; 0.003162 µM) was 0.885 GR. The GR value (THZ1; 0.01 µM) was 0.645 GR, the GR value (THZ1; 0.03162 µM) was 0.0807 GR and the GR value (THZ1; 0.1 µM) was -0.731 GR. It also gave a GR value (THZ1; 0.3162 µM) of -0.852 GR, a GR value (THZ1; 1 µM) of -0.8 GR and a GR value ([6]; 0.0003162 µM) of 0.999 GR. For the same cell line, the GR value ([6]; 0.001 µM) was 1.05 GR, the GR value ([6]; 0.003162 µM) was 1.04 GR and the GR value ([6]; 0.01 µM) was 0.985 GR. It also gave a GR value ([6]; 0.03162 µM) of 1.05 GR, a GR value ([6]; 0.1 µM) of 1.09 GR and a GR value ([6]; 0.3162 µM) of 1.02 GR. The GR value ([6]; 1 µM) was 1.09 GR, the GR value ([6]; 3.162 µM) was 0.993 GR and the GR value (YKL-5-124; 0.001 µM) was 0.478 GR. It also gave a GR value (YKL-5-124; 0.003162 µM) of 0.459 GR, a GR value (YKL-5-124; 0.01 µM) of 0.209 GR and a GR value (YKL-5-124; 0.03162 µM) of 0.309 GR. It also gave a GR value (YKL-5-124; 0.1 µM) of 0.195 GR, a GR value (YKL-5-124; 0.3162 µM) of 0.222 GR and a GR value (YKL-5-124; 1 µM) of 0.0281 GR. It also gave a GR value (YKL-5-124; 3.162 µM) of -0.0235 GR, a GR value (YKL-5-124; 10 µM) of -0.529 GR and a GR value (Neratinib/HKI272; 0.0003162 µM) of 0.994 GR. The GR value (Neratinib/HKI272; 0.001 µM) was 0.99 GR, the GR value (Neratinib/HKI272; 0.003162 µM) was 0.792 GR and the GR value (Neratinib/HKI272; 0.01 µM) was 1.07 GR. The GR value (Neratinib/HKI272; 0.03162 µM) was 0.979 GR, the GR value (Neratinib/HKI272; 0.1 µM) was 0.78 GR and the GR value (Neratinib/HKI272; 0.3162 µM) was 0.869 GR. For the same cell line, the GR value (Neratinib/HKI272; 1 µM) was 0.653 GR and the GR value (Neratinib/HKI272; 3.162 µM) was 0.484 GR.
